Values quoted from earlier work as cited in patent publication US20240315993A1, “ANTIPARASITIC COMPOUNDS” (Intervet Inc., priority 2021, published 2024).

What was measured:
[1] = tested on: Yellow Fever Mosquito (Aedes aegypti); details: 96-well plate, cited from earlier work; for Test C: Bioassay on Yellow Fever Mosquito, mortality rating: Aedes aegypti larvae about 1 day old, scored after 3 days; for Test C: mortality of Yellow Fever Mosquito larvae, rating: about 1 day-old larvae, graded after 3 days at room temperature
[2] = tested on: Beet Armyworm (Spodoptera exigua); details: 128-well diet tray, average of eight wells, cited from earlier work; for Test A: Bioassay on BAW, percent mortality rating: Beet Armyworm second instar larvae, 50 μg/cm^2, five to seven days; for Test A: percent mortality of Beet Armyworm (BAW) larvae, rating: 50 μg/cm^2 on artificial diet, second instar larvae, 5-7 days
[3] = tested on: Cabbage Looper (Trichoplusia ni); details: 128-well diet tray, average of eight wells, cited from earlier work; for Test B: Bioassay on CL, percent mortality rating: Cabbage Looper second instar larvae, 50 μg/cm^2, five to seven days; for Test B: percent mortality of Cabbage Looper (CL) larvae, rating: 50 μg/cm^2 on artificial diet, second instar larvae, 5-7 days

CC(C)(C)OC(=O)Nc1cccc(NC(=O)c2cc(NC(=O)C3C(c4cc(Cl)cc(Cl)c4)C3(Cl)Cl)ccc2Cl)n1 (stereo not drawn) [c97]
Test C: Bioassay on Yellow Fever Mosquito, mortality rating [1]: D (No activity noticed in this bioassay) | Test A: Bioassay on BAW, percent mortality rating [2]: A (50-100) | Test B: Bioassay on CL, percent mortality rating [3]: A (50-100)

CC(C)(C)OC(=O)Nc1cccc(NC(=O)c2cc(NC(=O)C3C(c4ccc(F)c(Cl)c4)C3(Cl)Cl)ccc2Cl)n1 (stereo not drawn) [c98]
Test C: Bioassay on Yellow Fever Mosquito, mortality rating [1]: A (80-100) | Test A: Bioassay on BAW, percent mortality rating [2]: A (50-100) | Test B: Bioassay on CL, percent mortality rating [3]: A (50-100)

O=C(Nc1ccc2c(c1)CCN2)c1cc(NC(=O)C2C(c3cc(Cl)cc(Cl)c3)C2(Cl)Cl)ccc1Cl (stereo not drawn) [c99]
Test C: Bioassay on Yellow Fever Mosquito, mortality rating [1]: A (80-100) | Test A: Bioassay on BAW, percent mortality rating [2]: A (50-100) | Test B: Bioassay on CL, percent mortality rating [3]: A (50-100)

CNc1ccc(NC(=O)c2cc(NC(=O)C3C(c4ccc(Br)c(Cl)c4)C3(Cl)Cl)ccc2Cl)c(C)c1 (stereo not drawn) [c100]
Test C: Bioassay on Yellow Fever Mosquito, mortality rating [1]: A (80-100) | Test A: Bioassay on BAW, percent mortality rating [2]: A (50-100) | Test B: Bioassay on CL, percent mortality rating [3]: A (50-100)

Cc1cc(N)ccc1NC(=O)c1cc(NC(=O)C2C(c3ccc(Br)c(Cl)c3)C2(Cl)Cl)ccc1Cl (stereo not drawn) [c101]
Test C: Bioassay on Yellow Fever Mosquito, mortality rating [1]: A (80-100) | Test A: Bioassay on BAW, percent mortality rating [2]: A (50-100) | Test B: Bioassay on CL, percent mortality rating [3]: A (50-100)

Cc1cc(NC(=O)OC(C)(C)C)ccc1NC(=O)c1cc(NC(=O)C2C(c3cc(Cl)cc(Br)c3)C2(Cl)Cl)ccc1Cl (stereo not drawn) [c102]
Test C: Bioassay on Yellow Fever Mosquito, mortality rating [1]: D (No activity noticed in this bioassay) | Test A: Bioassay on BAW, percent mortality rating [2]: A (50-100) | Test B: Bioassay on CL, percent mortality rating [3]: A (50-100)

Cc1cc(N)ccc1NC(=O)c1cc(NC(=O)C2C(c3cc(Cl)cc(Br)c3)C2(Cl)Cl)ccc1Cl (stereo not drawn) [c103]
Test C: Bioassay on Yellow Fever Mosquito, mortality rating [1]: A (80-100) | Test A: Bioassay on BAW, percent mortality rating [2]: A (50-100) | Test B: Bioassay on CL, percent mortality rating [3]: A (50-100)

CN1Cc2ccc(NC(=O)c3cc(NC(=O)C4C(c5cc(Cl)cc(Cl)c5)C4(Cl)Cl)ccc3Cl)cc2C1=O (stereo not drawn) [c104]
Test C: Bioassay on Yellow Fever Mosquito, mortality rating [1]: A (80-100) | Test A: Bioassay on BAW, percent mortality rating [2]: A (50-100) | Test B: Bioassay on CL, percent mortality rating [3]: A (50-100)

CN1Cc2cc(NC(=O)c3cc(NC(=O)C4C(c5cc(Cl)cc(Cl)c5)C4(Cl)Cl)ccc3Cl)ccc2C1=O (stereo not drawn) [c105]
Test C: Bioassay on Yellow Fever Mosquito, mortality rating [1]: A (80-100) | Test A: Bioassay on BAW, percent mortality rating [2]: A (50-100) | Test B: Bioassay on CL, percent mortality rating [3]: A (50-100)

O=C(Nc1cncc([N+](=O)[O-])c1)c1cc(NC(=O)C2C(c3cc(Cl)cc(Cl)c3)C2(Cl)Cl)ccc1Cl (stereo not drawn) [c106]
Test C: Bioassay on Yellow Fever Mosquito, mortality rating [1]: A (80-100) | Test A: Bioassay on BAW, percent mortality rating [2]: A (50-100) | Test B: Bioassay on CL, percent mortality rating [3]: A (50-100)

O=C(Nc1cncc([N+](=O)[O-])c1)c1cc(NC(=O)C2C(c3ccc(Cl)c(Cl)c3)C2(Cl)Cl)ccc1Cl (stereo not drawn) [c107]
Test C: Bioassay on Yellow Fever Mosquito, mortality rating [1]: A (80-100) | Test A: Bioassay on BAW, percent mortality rating [2]: A (50-100) | Test B: Bioassay on CL, percent mortality rating [3]: A (50-100)

O=C(Nc1cncc(NO)c1)c1cc(NC(=O)C2C(c3cc(Cl)cc(Cl)c3)C2(Cl)Cl)ccc1Cl (stereo not drawn) [c108]
Test C: Bioassay on Yellow Fever Mosquito, mortality rating [1]: A (80-100) | Test A: Bioassay on BAW, percent mortality rating [2]: A (50-100) | Test B: Bioassay on CL, percent mortality rating [3]: A (50-100)

Nc1cncc(NC(=O)c2cc(NC(=O)C3C(c4cc(Cl)cc(Cl)c4)C3(Cl)Cl)ccc2Cl)c1 (stereo not drawn) [c109]
Test C: Bioassay on Yellow Fever Mosquito, mortality rating [1]: A (80-100) | Test A: Bioassay on BAW, percent mortality rating [2]: A (50-100) | Test B: Bioassay on CL, percent mortality rating [3]: A (50-100)

O=C(Nc1cncc(NO)c1)c1cc(NC(=O)C2C(c3ccc(Cl)c(Cl)c3)C2(Cl)Cl)ccc1Cl (stereo not drawn) [c110]
Test C: Bioassay on Yellow Fever Mosquito, mortality rating [1]: A (80-100) | Test A: Bioassay on BAW, percent mortality rating [2]: A (50-100) | Test B: Bioassay on CL, percent mortality rating [3]: A (50-100)

Nc1cncc(NC(=O)c2cc(NC(=O)C3C(c4ccc(Cl)c(Cl)c4)C3(Cl)Cl)ccc2Cl)c1 (stereo not drawn) [c111]
Test C: Bioassay on Yellow Fever Mosquito, mortality rating [1]: A (80-100) | Test A: Bioassay on BAW, percent mortality rating [2]: A (50-100) | Test B: Bioassay on CL, percent mortality rating [3]: A (50-100)

Cn1ccc2c(NC(=O)c3cc(NC(=O)C4C(c5cc(Cl)cc(Cl)c5)C4(Cl)Cl)ccc3Cl)cccc21 (stereo not drawn) [c112]
Test C: Bioassay on Yellow Fever Mosquito, mortality rating [1]: A (80-100) | Test A: Bioassay on BAW, percent mortality rating [2]: A (50-100) | Test B: Bioassay on CL, percent mortality rating [3]: A (50-100)

Cn1ccc2cccc(NC(=O)c3cc(NC(=O)C4C(c5cc(Cl)cc(Cl)c5)C4(Cl)Cl)ccc3Cl)c21 (stereo not drawn) [c113]
Test C: Bioassay on Yellow Fever Mosquito, mortality rating [1]: A (80-100) | Test A: Bioassay on BAW, percent mortality rating [2]: A (50-100) | Test B: Bioassay on CL, percent mortality rating [3]: A (50-100)

Cc1cc(N)ccc1NC(=O)c1cc(NC(=O)C2C(c3ccc(Cl)c(Cl)c3)C2(Cl)Cl)ccc1Cl (stereo not drawn) [c114]
Test C: Bioassay on Yellow Fever Mosquito, mortality rating [1]: A (80-100) | Test A: Bioassay on BAW, percent mortality rating [2]: A (50-100) | Test B: Bioassay on CL, percent mortality rating [3]: A (50-100)

COCC(=O)N(C)c1ccc(NC(=O)c2cc(NC(=O)C3C(c4cc(Cl)cc(Cl)c4)C3(Cl)Cl)ccc2Cl)cc1 (stereo not drawn) [c115]
Test C: mortality of Yellow Fever Mosquito larvae, rating [1]: B (More than 0 - Less than 80) | Test A: percent mortality of Beet Armyworm (BAW) larvae, rating [2]: A (50-100) | Test B: percent mortality of Cabbage Looper (CL) larvae, rating [3]: A (50-100)

CNc1ccc(NC(=O)c2cc(NC(=O)C3C(c4cc(Cl)cc(Cl)c4)C3(Cl)Cl)ccc2Cl)cc1C (stereo not drawn) [c116]
Test C: mortality of Yellow Fever Mosquito larvae, rating [1]: A (80-100) | Test A: percent mortality of Beet Armyworm (BAW) larvae, rating [2]: A (50-100) | Test B: percent mortality of Cabbage Looper (CL) larvae, rating [3]: A (50-100)

CC(=O)Nc1ccc(NC(=O)c2cc(NC(=O)C3C(c4ccc(F)c(Cl)c4)C3(Cl)Cl)ccc2Cl)cc1 (stereo not drawn) [c117]
Test C: mortality of Yellow Fever Mosquito larvae, rating [1]: A (80-100) | Test A: percent mortality of Beet Armyworm (BAW) larvae, rating [2]: A (50-100) | Test B: percent mortality of Cabbage Looper (CL) larvae, rating [3]: A (50-100)

CC(=O)Nc1ccc(NC(=O)c2cc(NC(=O)[C@H]3[C@H](c4ccc(F)c(Cl)c4)C3(Cl)Cl)cc(Cl)c2C)cc1 [c118]
Test C: mortality of Yellow Fever Mosquito larvae, rating [1]: A (80-100) | Test A: percent mortality of Beet Armyworm (BAW) larvae, rating [2]: A (50-100) | Test B: percent mortality of Cabbage Looper (CL) larvae, rating [3]: A (50-100)

O=C(Nc1ccccc1)c1cc(NC(=O)[C@H]2[C@H](c3ccc(F)c(Cl)c3)C2(Cl)Cl)cc(C(F)(F)F)c1Cl [c121]
Test C: mortality of Yellow Fever Mosquito larvae, rating [1]: A (80-100) | Test A: percent mortality of Beet Armyworm (BAW) larvae, rating [2]: A (50-100) | Test B: percent mortality of Cabbage Looper (CL) larvae, rating [3]: A (50-100)

O=C(Nc1ccccc1)c1c(Cl)ccc(NC(=O)[C@H]2[C@H](c3ccc(F)c(Cl)c3)C2(Cl)Cl)c1Cl [c122]
Test C: mortality of Yellow Fever Mosquito larvae, rating [1]: A (80-100) | Test A: percent mortality of Beet Armyworm (BAW) larvae, rating [2]: A (50-100) | Test B: percent mortality of Cabbage Looper (CL) larvae, rating [3]: A (50-100)

Cc1c(N)ccc(NC(=O)c2cc(NC(=O)C3C(c4ccc(F)c(C(F)(F)F)c4)C3(Cl)Cl)ccc2Cl)c1C (stereo not drawn) [c123]
Test C: mortality of Yellow Fever Mosquito larvae, rating [1]: A (80-100) | Test A: percent mortality of Beet Armyworm (BAW) larvae, rating [2]: A (50-100) | Test B: percent mortality of Cabbage Looper (CL) larvae, rating [3]: A (50-100)

Cc1c(NC(=O)c2cc(NC(=O)C3C(c4ccc(F)c(C(F)(F)F)c4)C3(Cl)Cl)ccc2Cl)ccc(NC(=O)C(F)(F)F)c1C (stereo not drawn) [c124]
Test C: mortality of Yellow Fever Mosquito larvae, rating [1]: A (80-100) | Test A: percent mortality of Beet Armyworm (BAW) larvae, rating [2]: A (50-100) | Test B: percent mortality of Cabbage Looper (CL) larvae, rating [3]: A (50-100)
